Values quoted from earlier work, collected in PubChem BioAssay AID1259409 (Chemical Carcinogenesis Research Information System (CCRIS), 2018).

Tested on: rodent chemically induced tumor inhibition, incidence and multiplicity
Experiment: CCRIS tumor inhibitor studies

CC(O)CCC(=O)c1ccccc1 (configuration not stated)
tumour outcome (control, treated, inhibition, significance) (Carcinogen: 4-(METHYLNITROSAMINO)-1-(3-PYRIDYL)-1-BUTANONE, 64091-91-4, Dose [Inhibitor]: 0, 25 UMOL IN 0.1 ML CORN OIL ONCE 2 HR PRIOR TO CARCINOGEN DOSE (STUDY DURATION: 16 WK), Route [Inhibitor]: GAVAGE, Species: MOUSE, Strain/Sex: STRAIN-A/FEMALE, Target Tissue: Type of Lesion: LUNG: ADENOMA, Dose [Carcinogen]: 10 UMOL IN 0.1 ML SALINE ONCE, Promoter: NONE USED): 100%, 95%, 5%, not significant | tumour outcome (control, treated, inhibition, significance) (Carcinogen: 4-(METHYLNITROSAMINO)-1-(3-PYRIDYL)-1-BUTANONE, 64091-91-4, Dose [Inhibitor]: 0, 25 UMOL IN 0.1 ML CORN OIL ONCE 2 HR PRIOR TO CARCINOGEN DOSE (STUDY DURATION: 16 WK), Route [Inhibitor]: GAVAGE, Species: MOUSE, Strain/Sex: STRAIN-A/FEMALE, Target Tissue: Type of Lesion: LUNG: TUMOR, Dose [Carcinogen]: 10 UMOL IN 0.1 ML SALINE ONCE, Promoter: NONE USED): 100%, 100%, 0%, not significant

CC(C)NCC(O)COc1cccc2ccccc12 (configuration not stated)
tumour outcome (control, treated, inhibition, significance) (Carcinogen: 4-(METHYLNITROSAMINO)-1-(3-PYRIDYL)-1-BUTANONE [64091-91-4], Dose [Inhibitor]: 3 MG/KG BW 3X/WK FOR 20 WK IMMEDIATELY PRIOR TO EACH CARCINOGEN DOSE (STUDY DURATION: 52 WK), Route [Inhibitor]: SUBCUTANEOUS, Species: HAMSTER, Strain/Sex: SYRIAN/MALE, Target Tissue: Type of Lesion: LUNG: TUMOR, Dose [Carcinogen]: 10 MG/KG BW 3X/WK FOR 20 WK (STUDY DURATION: 52 WK), Promoter: NONE): 12/15 (80.0%), 6/15 (40%), 50%, not calculated | tumour outcome (control, treated, inhibition, significance) (Carcinogen: 4-(METHYLNITROSAMINO)-1-(3-PYRIDYL)-1-BUTANONE [64091-91-4], Dose [Inhibitor]: 3 MG/KG BW 3X/WK FOR 20 WK IMMEDIATELY PRIOR TO EACH CARCINOGEN DOSE (STUDY DURATION: 52 WK), Route [Inhibitor]: SUBCUTANEOUS, Species: HAMSTER, Strain/Sex: SYRIAN/MALE, Target Tissue: Type of Lesion: NASAL CAVITY: TUMOR, Dose [Carcinogen]: 10 MG/KG BW 3X/WK FOR 20 WK (STUDY DURATION: 52 WK), Promoter: NONE): 4/15 (26.7%), 4/15 (26.7%), 0%, not calculated | outcome (Carcinogen: 4-(Methylnitrosamino)-1-(3-pyridyl)-1-butanone, Dose [Inhibitor]: 0.3 mg/100 g bw, 5 x a wk from offspring age of 4 wks-8 mo., Route [Inhibitor]: Subcutaneous injection, Species: Hamster, Strain/Sex: Syrian golden, male and female offspring, Target Tissue: Type of Lesion: Pancreas: Tumor (in offspring), Dose [Carcinogen]: 50 mg/kg once to dams on day 15 of pregnancy, Promoter: Ethanol): 66.6%, 8.3% | tumour outcome (control, treated, inhibition, significance) (Carcinogen: N-METHYL-N'-NITRO-N-NITROSOGUANIDINE, 70-25-7, Dose [Inhibitor]: 0, 5 MG/KG IN OLIVE OIL SUSPENSION 1/D BEGINNING 1 WK POST LAST CARCINOGEN DOSE AND CONTINUING FOR DURATION OF STUDY (ST, Species: RAT, Strain/Sex: WISTAR/MALE, Target Tissue: Type of Lesion: GLANDULAR STOMACH: ADENOCARCINOMA, Dose [Carcinogen]: 50 UG/ML IN DRINKING WATER FOR 25 WK, Promoter: NONE USED): 15/18 (83%), 11/20 (55%), 34%, not calculated

CC(C#Cc1ccc(Oc2ccc(F)cc2)o1)N(O)C(N)=O (configuration not stated)
tumour outcome (control, treated, inhibition, significance) (Carcinogen: 4-(METHYLNITROSAMINO)-1-(3-PYRIDYL)-1-BUTANONE, 64091-91-4, Dose [Inhibitor]: 0, 74 MG/KG DIET FOR DURATION OF STUDY BEGINNING 2 WK PRIOR TO CARCINOGEN TREATMENT (STUDY DURATION: 25 WK), Route [Inhibitor]: ORAL, Species: MOUSE, Strain/Sex: STRAIN-A/FEMALE, Target Tissue: Type of Lesion: LUNG: TUMOR, Dose [Carcinogen]: 9.1 MG/MOUSE IN DRINKING WATER FOR 7 WK, Promoter: NONE USED): 29/29 (100%), 20/25 (80%), 20%, p<0.001
